Measurements: patent US12257247B2 (Monte Rosa Therapeutics AG, priority 2023, dated 2025)
Where two headings read alike, the source gives them in different places.

Biological target: T1, VAV1 (Homo sapiens, UniProt P15498+Q96SW2)
T1 construct: A heterozygous VAV1 C-terminal HiBiT knock-in pool was generated at Monte Rosa Therapeutics from a clonal Jurkat cell; endogenous in cells; host or cells: Jurkat clone stably expressing LgBiT, homozygous GSPT1-G575N; heterozygous VAV1-HiBiT knock-in pool
Test: VAV1 degradation activity, VAV1-HiBiT knock-in Jurkat luminescence assay (Example A, Table 1)
Type: cell-based
Details: VAV1-HiBiT knock-in Jurkat cells, luminescence read at 6 and 24 hours; for Dmax: Jurkat
Description: Cells were plated at 10,000 cells per well using Multiflo (BioTek) or Multi Drop Combi (Thermo Fisher) in 384-well white solid bottom plates (Corning, 3570BC) in 25 ul volume in RPMI 1640 media (Thermo Fischer, 22400105) containing 10% FBS (Corning, 35-075-CV), 1% Penicillin/Streptomycin (ThermoFisher Scientific, 15140-122), and 1% Endurazine (Nano-Glo Endurazine Live Cell Substrate (Promega, N2571)). Cells were incubated for ˜16 hours at 37° C., 5% CO2. 25 nL of a compound at 10 μM were dosed into the plate using an Echo® 650 liquid handler (Labcyte). Cells were incubated at 37° C., 5% CO2 and signal was read at 6 and 24 hours after compound addition on a Pherastar FSX using “LUM plus” optic module.
Analysis was performed in Scinamic (Scinamic, Cambridge, MA). Luminescence response (R) was calculated by the formula: response=100*(S−N)/(P−N) where S is the signal of the well, N and P the mean negative and positive control values respectively of the same plate. The luminescence response was then fitted in Scinamic using a 3-parameter agonist logistic fit (hillslope=1, EC50>0, top/bottom unconstrained).

[1] = read-out: VAV1 DC50 (nM), class

Compound | Dmax (read-out: VAV1 Dmax %) [%] | Dmax (read-out: VAV1 Dmax %, class) [%] | DC50 (read-out: VAV1 DC50) [nM] | DC50 [1] [nM] | VAV1 Dmax % [%]
O=C1CCC(c2cccc(-c3ccc(N4CCN5CCCC5C4=O)cc3)c2Cl)C(=O)N1 (stereo not drawn) [Compound 308] | 93.8 | > 90 | 22.5 | ≤ 100 | 
O=C1CCC(c2cccc(-c3ccc(C(=O)N4CCCC4)cc3)c2Cl)C(=O)N1 (stereo not drawn) [Compound 181, 3-(2-chloro-4′-(pyrrolidine-1-carbonyl)-[1,1′-biphenyl]-3-yl)piperidine-2,6-dione] | 85.9 | 60 to 90 | 33.9 | ≤ 100 | 
O=C1CCC(c2cccc(-c3ccc(OCCCO)cc3)c2Cl)C(=O)N1 (stereo not drawn) [Compound 117] | 72 | 60 to 90 | 353 | 100 to 1000 | 
O=C1CCC(c2cccc(-c3ccc(N4C(=O)Cc5ccccc54)cc3)c2Cl)C(=O)N1 (stereo not drawn) [Compound 468, 3-(2-chloro-4′-(2-oxoindolin-1-yl)-[1,1′-biphenyl]-3-yl)piperidine-2,6-dione] | 96.2 | > 90 | 24.8 | ≤ 100 | 
Cc1cccc(=O)n1-c1ccc(-c2cccc(C3CCC(=O)NC3=O)c2Cl)cn1 (stereo not drawn) [Compound 353, 3-(2-chloro-3-(6-methyl-2-oxo-2H-[1,2′-bipyridin]-5′-yl)phenyl)piperidine-2,6-dione] | 90.7 | > 90 | 62.1 | ≤ 100 | 
O=C1CCC(c2cccc(-c3ccc(-n4cccc(C(F)(F)F)c4=O)cc3)c2Cl)C(=O)N1 (stereo not drawn) [Compound 226, 3-(2-chloro-4′-(2-oxo-3-(trifluoromethyl)pyridin-1(2H)-yl)-[1,1′-biphenyl]-3-yl)piperidine-2,6-dione] | 96.8 | > 90 | 9.8 | ≤ 100 | 
O=C1CCC(c2cccc(-c3ccc(N4CCCN(CC(F)F)C4=O)cc3)c2Cl)C(=O)N1 (stereo not drawn) [Compound 429, 3-(2-chloro-4′-(3-(2,2-difluoroethyl)-2-oxotetrahydropyrimidin-1(2H)-yl)-[1,1′-biphenyl]-3-yl)piperidine-2,6-dione] | 96.9 | > 90 | 5.19 | ≤ 100 | 
CN1CCC[C@@H](c2ccc(-c3cccc(C4CCC(=O)NC4=O)c3Cl)cc2)C1=O (stereo partly drawn) [Compound 410, 3-(2-chloro-4′-((S)-1-methyl-2-oxopiperidin-3-yl)-[1,1′-biphenyl]-3-yl)piperidine-2,6-dione] | 92.1 | > 90 | 17 | ≤ 100 | 
O=C1CCC(c2cccc(-c3ccc(Cn4cccn4)cc3)c2Cl)C(=O)N1 (stereo not drawn) [Compound 120] | 94 | > 90 | 15.1 | ≤ 100 | 
O=C1CCC(c2cccc(-c3ccc(CN4CCC5CC5C4=O)cc3)c2Cl)C(=O)N1 (stereo not drawn) [Compound 283] | 93.3 | > 90 | 11.1 | ≤ 100 | 
O=C1CCC(c2cccc(-c3ccc(Cc4ccco4)cc3)c2Cl)C(=O)N1 (stereo not drawn) [Compound 373, 3-(2-chloro-4′-(furan-2-ylmethyl)-[1,1′-biphenyl]-3-yl)piperidine-2,6-dione] | 97.2 | > 90 | 25.6 | ≤ 100 | 
O=C1CCC(c2cc(F)cc(-c3ccc(-n4ccccc4=O)cc3)c2Cl)C(=O)N1 (stereo not drawn) [Compound 361, 3-(2-chloro-5-fluoro-4′-(2-oxopyridin-1(2H)-yl)-[1,1′-biphenyl]-3-yl)piperidine-2,6-dione] | 84.4 | 60 to 90 | 76.4 | ≤ 100 | 
CC1(C)COCC(=O)N1c1ccc(-c2cccc(C3CCC(=O)NC3=O)c2Cl)cc1 (stereo not drawn) [Compound 402, 3-(2-chloro-4′-(3,3-dimethyl-5-oxomorpholino)-[1,1′-biphenyl]-3-yl)piperidine-2,6-dione] | 97.4 | > 90 | 5.3 | ≤ 100 | 
Cc1cccc(=O)n1Cc1ccc(-c2cccc(C3CCC(=O)NC3=O)c2Cl)cc1 (stereo not drawn) [Compound 184, 3-(2-chloro-4′-((6-methyl-2-oxopyridin-1(2H)-yl)methyl)-[1,1′-biphenyl]-3-yl)piperidine-2,6-dione] | 92.1 | > 90 | 11.6 | ≤ 100 | 
Cc1cc(-c2cccc(C3CCC(=O)NC3=O)c2Cl)ccc1-n1ccccc1=O (stereo not drawn) [Compound 199, 3-(2-chloro-3′-methyl-4′-(2-oxopyridin-1(2H)-yl)-[1,1′-biphenyl]-3-yl)piperidine-2,6-dione] | 66.8 | 60 to 90 | 1280 | > 1000 | 
O=C1CCC(c2cccc(-c3ccc(OC4CCOC4)cc3)c2Cl)C(=O)N1 (stereo not drawn) [Compound 109] | 66.4 | 60 to 90 | 678 | 100 to 1000 | 
CN1CCCN(c2ccc(-c3cccc(C4CCC(=O)NC4=O)c3Cl)cc2F)C1=O (stereo not drawn) [Compound 436, 3-(2-chloro-3′-fluoro-4′-(3-methyl-2-oxotetrahydropyrimidin-1(2H)-yl)-[1,1′-biphenyl]-3-yl)piperidine-2,6-dione] | 96 | > 90 | 8.75 | ≤ 100 | 
O=C1CCC(c2cccc(-c3ccc(-n4cccc(CC(F)(F)F)c4=O)cc3)c2Cl)C(=O)N1 (stereo not drawn) [Compound 417, 3-(2-chloro-4′-(2-oxo-3-(2,2,2-trifluoroethyl)pyridin-1(2H)-yl)-[1,1′-biphenyl]-3-yl)piperidine-2,6-dione] | 98.5 | > 90 | 6.68 | ≤ 100 | 
O=C1CCC(c2cccc(-c3ccc(N4CCCN(CC(F)(F)F)C4=O)cc3)c2Cl)C(=O)N1 (stereo not drawn) [Compound 449, 3-(2-chloro-4′-(2-oxo-3-(2,2,2-trifluoroethyl)tetrahydropyrimidin-1(2H)-yl)-[1,1′-biphenyl]-3-yl)piperidine-2,6-dione] | 97 | > 90 | 6.45 | ≤ 100 | 
COCCCOc1ccc(-c2cccc(C3CCC(=O)NC3=O)c2Cl)cc1 (stereo not drawn) [Compound 126] | 91.4 | > 90 | 127 | 100 to 1000 | 
CN1CC(=O)N(c2ccc(-c3cccc(C4CCC(=O)NC4=O)c3Cl)cn2)CC12CC2 (stereo not drawn) [Compound 346, 3-(2-chloro-3-(6-(4-methyl-6-oxo-4,7-diazaspiro[2.5]octan-7-yl)pyridin-3-yl)phenyl)piperidine-2,6-dione] | 29.4 | < 60 | ≥ 10000 | > 1000 | 
O=C1CCC(c2cccc(-c3ccc(N4CCn5cncc5C4=O)cc3)c2Cl)C(=O)N1 (stereo not drawn) [Compound 315] | 89.8 | 60 to 90 | 22 | ≤ 100 | 
COc1ccnc(Cc2ccc(-c3cccc(C4CCC(=O)NC4=O)c3Cl)cc2)n1 (stereo not drawn) [Compound 421, 3-(2-chloro-4′-((4-methoxypyrimidin-2-yl)methyl)-[1,1′-biphenyl]-3-yl)piperidine-2,6-dione] | 97.8 | > 90 | 6.96 | ≤ 100 | 
O=C1CCC(c2cccc(-c3ccc(NC(=O)c4ccno4)cc3)c2Cl)C(=O)N1 (stereo not drawn) [Compound 228, N-(2′-chloro-3′-(2,6-dioxopiperidin-3-yl)-[1,1′-biphenyl]-4-yl)isoxazole-5-carboxamide] | 73.5 | 60 to 90 | 190 | 100 to 1000 | 
CN1CCCN(c2ccc(-c3cccc(C4CCC(=O)NC4=O)c3Cl)cc2)C1=O (stereo not drawn) [Compound 247] | 95.4 | > 90 | 5.38 | ≤ 100 | 
O=C1CCC(c2cccc(-c3ccc(-n4cccc(CC(F)F)c4=O)cc3)c2Cl)C(=O)N1 (stereo not drawn) [Compound 444, 3-(2-chloro-4′-(3-(2,2-difluoroethyl)-2-oxopyridin-1(2H)-yl)-[1,1′-biphenyl]-3-yl)piperidine-2,6-dione] | 97.7 | > 90 | 7.1 | ≤ 100 | 
O=C1CCC(c2cccc(-c3ccc(Cc4cncnc4)cc3)c2Cl)C(=O)N1 (stereo not drawn) [Compound 376, 3-(2-chloro-4′-(pyrimidin-5-ylmethyl)-[1,1′-biphenyl]-3-yl)piperidine-2,6-dione] | 95.8 | > 90 | 15.2 | ≤ 100 | 
CN1CC(=O)N(c2ccc(-c3cccc(C4CCC(=O)NC4=O)c3Cl)cc2)CC1(C)C (stereo not drawn) [Compound 317] | 93.2 | > 90 | 13.6 | ≤ 100 | 
O=C1CCC(c2c(F)ccc(-c3ccc(Cn4ccccc4=O)cc3)c2F)C(=O)N1 (stereo not drawn) [Compound 147, 3-(2,4-difluoro-4′-((2-oxopyridin-1(2H)-yl)methyl)-[1,1′-biphenyl]-3-yl)piperidine-2,6-dione] | 33.3 | < 60 | ≥ 10000 | > 1000 | 33.28
